Like-named read-outs stand apart in the source and are kept apart here.
Tests used:
healthy subjects [1] = assay: Adverse effects, list of complaints (LC), Clinical Study I; assay type: in vivo, human; conditions: for mean total LC score: six human volunteers, oral mescaline 300 mg, psilocybin 20 mg, LSD 100 μg, LC 12 hours after administration
Protocol: Adverse effects (list of complaints): The list of complaints (LC) consists of 66 items offering a global score measuring physical and general discomfort (119). The LC list was administered 12 hours after administration of the drug with reference to complaints throughout the entire session.

healthy subjects [2] = assay: Autonomic measures (blood pressure, heart rate, body temperature), Clinical Study I; assay type: in vivo, human
Protocol: Autonomic measures: Blood pressure, heart rate, and body temperature were recorded at baseline and repeatedly throughout the session. Blood pressure (systolic and diastolic) and heart rate were measured with an automatic oscillometric device. Body temperature was measured with an ear thermometer.

healthy subjects [3] = assay: Visual Analog Scales (VAS) of acute subjective effects, Clinical Study I; conditions: for duration of subjective effects (VAS any drug effect): mescaline 300 mg, psilocybin 20 mg, LSD 100 μg oral
healthy male subjects = conditions: cited from earlier work; for psychoactive or cardiostimulant properties of metabolites administered to humans: in vivo
5-HT transporter (SERT) = 5-HT transporter (SERT) (Homo sapiens, UniProt P31645); conditions: cited from earlier work
Sequence of 5-HT transporter (SERT) (P31645 whole entry): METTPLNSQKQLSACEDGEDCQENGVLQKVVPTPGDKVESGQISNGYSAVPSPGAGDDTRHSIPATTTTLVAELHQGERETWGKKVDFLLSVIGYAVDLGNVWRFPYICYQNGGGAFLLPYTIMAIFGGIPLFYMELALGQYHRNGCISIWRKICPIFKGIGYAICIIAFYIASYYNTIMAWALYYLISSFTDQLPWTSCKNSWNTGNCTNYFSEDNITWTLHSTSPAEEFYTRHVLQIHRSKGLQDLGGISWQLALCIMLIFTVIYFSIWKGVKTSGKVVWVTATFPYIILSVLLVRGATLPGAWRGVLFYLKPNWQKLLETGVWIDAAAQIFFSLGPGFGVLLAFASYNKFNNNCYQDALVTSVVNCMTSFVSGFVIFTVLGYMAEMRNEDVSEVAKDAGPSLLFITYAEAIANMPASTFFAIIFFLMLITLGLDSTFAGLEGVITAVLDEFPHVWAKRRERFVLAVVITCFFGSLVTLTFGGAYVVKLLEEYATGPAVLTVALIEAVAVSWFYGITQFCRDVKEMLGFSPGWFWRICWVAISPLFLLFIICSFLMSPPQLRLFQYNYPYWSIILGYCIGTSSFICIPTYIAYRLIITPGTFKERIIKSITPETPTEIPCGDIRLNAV

healthy subjects [4] = conditions: mescaline sulfate 500 mg, 12 subjects, MDE, 14 subjects, cited from earlier work
humans = conditions: cited from earlier work
rodent = rodent tests (49); cited from earlier work
healthy subjects [5] = assay: 5-Dimensional Altered States of Consciousness (5D-ASC) scale, Clinical Study I; assay type: in vivo, human; conditions: 6 subjects
Protocol: 5-Dimensional Altered States of Consciousness (5D-ASC): The 5-dimensional Altered States of Consciousness (5D-ASC) Scale is a visual analog scale consisting of 94 items (117, 118). The instrument contains five main scales (FIG. 6A) and 11 newer subscales (FIG. 6B) assessing mood, anxiety, derealization, depersonalization, changes in perception, auditory alterations, and reduced vigilance. The scale is well-validated (118). The 5D-ASC scale was administered once at the end of the session and subjects were instructed to retrospectively rate peak alterations that have been experienced during the study session. Each item of the scale is scored on a 0-100 mm VAS. The attribution of the individual items to the subscales of the 5D-ASC was analyzed according to (117, 118) and as shown in FIGS. 6A-6B. The scale was be administered once at the end of each test session.

D2 receptors = D2 receptors (Homo sapiens, UniProt P14416); conditions: FIG. 3; cited from earlier work
Sequence of D2 receptors (P14416 whole entry): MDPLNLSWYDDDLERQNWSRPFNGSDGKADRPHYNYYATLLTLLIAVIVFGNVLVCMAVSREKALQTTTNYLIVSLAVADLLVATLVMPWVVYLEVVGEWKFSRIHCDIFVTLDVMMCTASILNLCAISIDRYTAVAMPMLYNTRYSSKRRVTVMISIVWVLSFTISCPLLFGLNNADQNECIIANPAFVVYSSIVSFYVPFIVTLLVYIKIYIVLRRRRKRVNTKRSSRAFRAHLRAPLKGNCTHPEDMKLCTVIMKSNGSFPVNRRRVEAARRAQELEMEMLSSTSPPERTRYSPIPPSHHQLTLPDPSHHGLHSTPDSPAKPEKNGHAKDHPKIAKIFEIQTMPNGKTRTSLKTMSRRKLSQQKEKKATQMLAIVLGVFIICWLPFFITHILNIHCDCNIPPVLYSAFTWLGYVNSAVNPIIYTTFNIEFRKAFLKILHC

[6] = LSD vs. MDMA (45); cited from earlier work
healthy subjects [7] = conditions: 100 μg dose; cited from earlier work
5-HT2A receptor = 5-HT2A receptor (Homo sapiens, UniProt P28223); conditions: FIG. 2 (62); cited from earlier work
Sequence of 5-HT2A receptor (P28223 whole entry): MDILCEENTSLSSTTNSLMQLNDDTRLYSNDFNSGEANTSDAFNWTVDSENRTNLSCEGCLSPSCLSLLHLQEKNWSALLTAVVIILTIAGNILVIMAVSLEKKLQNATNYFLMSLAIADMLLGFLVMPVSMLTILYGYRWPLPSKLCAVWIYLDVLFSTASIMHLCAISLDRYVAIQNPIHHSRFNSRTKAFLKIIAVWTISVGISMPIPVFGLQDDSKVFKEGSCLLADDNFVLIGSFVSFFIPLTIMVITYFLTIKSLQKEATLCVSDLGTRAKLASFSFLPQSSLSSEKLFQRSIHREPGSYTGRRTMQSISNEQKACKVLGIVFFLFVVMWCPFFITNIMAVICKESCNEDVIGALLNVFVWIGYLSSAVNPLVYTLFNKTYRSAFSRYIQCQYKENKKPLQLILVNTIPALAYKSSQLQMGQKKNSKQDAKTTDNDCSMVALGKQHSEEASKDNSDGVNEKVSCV

[8] = 500 mg mescaline hydrochloride orally
[9] = six healthy volunteers, doses used

CN(C)CCc1c[nH]c2cccc(OP(=O)(O)O)c12 [psilocybin, reference compound]
mean total LC score (healthy subjects [1]): 6.8
increase in blood pressure and body temperature compared with the other active substances (healthy subjects [2]; 6 subjects): more pronounced and shorter-lasting increase
nausea (VAS) (healthy subjects [3]; doses used): highest

COc1cc(CC(=O)O)cc(OC)c1OC [TMPA, 3,4,5-trimethoxyphenylacetic acid]
share excreted in urine as this species after mescaline (healthy male subjects; [8]): 27-30%
psychoactive or cardiostimulant properties of metabolites administered to humans (healthy male subjects): not to have psychoactive or cardiostimulant properties

CN(C)CCc1c[nH]c2cccc(O)c12 [Psilocin, reference compound]
interaction with the SERT (5-HT transporter (SERT)): inhibits the 5-HT transporter (SERT)

COc1cc(CCNC(C)=O)cc(O)c1OC [N-acetyl-(3,4,dimethoxy-5-hydroxyphenylethalymine]
share excreted in urine as this species after mescaline (healthy male subjects; [8]): 5%

COc1cc(CCN)cc(OC)c1OC [mescaline, 3,4,5-trimethoxyphenethylamine]
overall tolerability of acute administration (healthy subjects [1]; doses used): overall similar to that of LSD or psilocybin
mean total LC score (healthy subjects [1]): 8.8
average APZ score AIA (anxious ego-dissolution) (healthy subjects [4]): 7.1
average APZ score VUS (visionary restructuralization) (healthy subjects [4]): 7.4
average APZ score OSE (oceanic boundlessness) (healthy subjects [4]; indirect comparison): 6.2
increases in blood pressure, heart rate and body temperature after mescaline (healthy subjects [2]; 6 subjects, mescaline 300 mg): tended to be attenuated compared with both psilocybin and LSD
thermogenic effects (healthy subjects [2]; Example 1): reduced thermogenic effects of mescaline compared to psilocybin
effects on heart rate (healthy subjects [2]; doses used, not statistically confirmed): tended to be lower than those of psilocybin
dose to induce a full psychedelic experience (humans; (51, 86)): about 300 mg
potency relative to LSD (times less potent) (humans; (86)): 1000-3000 times
potency relative to psilocybin (times less potent) (humans; (86)): around 30 times
subjective effect duration (humans; moderate dose (86)): 10 to 12 h
duration of subjective effects (healthy male subjects; [8]): 12 to 14 h
onset of subjective effects (healthy male subjects; [8]): ≤ 30 min
share excreted in urine as this species after mescaline (healthy male subjects; [8]): 55-60%
time of peak subjective effects (healthy male subjects; [8]): 4 h
onset of subjective effects (healthy male subjects; 500 mg mescaline hydrochloride orally, listed as mescaline hydrochloride): approximately 30 min
delay of the peak subjective response compared with the plasma peak (healthy male subjects; 500 mg orally): about 2 hours
radioactivity administered excreted within 24 hours (healthy male subjects; 500 mg orally): 87%
radioactivity administered excreted within 48 h (healthy male subjects; 500 mg orally): 92%
half-life (healthy male subjects; mescaline hydrochloride 500 mg orally, radioactivity ingested as mescaline): approximately six
interaction with the SERT (5-HT transporter (SERT)): do not interact with the SERT
abuse-related rewarding effects (rodent): no abuse-related rewarding effects
total alterations of consciousness (total 3D-OAV score) relative to LSD (100 μg) or psilocybin (20 mg) (healthy subjects [5]; mescaline 300 mg oral, peak responses rated 12 hours after administration): approximately 50%
affinity for D2 receptors (D2 receptors): no affinity
area under the effect-time curve, visual and auditory perception (VAS) (healthy subjects [3]; doses used): similar
bad drug effect (VAS) peaks (healthy subjects [3]; doses used): peaks lower for LSD and mescaline compared with psilocybin
changed time perception (VAS) (healthy subjects [3]; doses used): trends toward lower changes
ego-dissolution (VAS) (healthy subjects [3]; doses used): lower ratings
nausea (VAS) (healthy subjects [3]; doses used): lowest nausea ratings
openness (VAS) (healthy subjects [3]; doses used): smallest peak effect but a longer lasting effect compared with psilocybin
synesthesia, "sounds influenced what I saw" (VAS) (healthy subjects [3]; doses used): lower ratings
visual and auditory perception change (VAS), ratings/peak (healthy subjects [3]; doses used): lower peak effects than both psilocybin and LSD
talkative (VAS) (healthy subjects [3]; first hours): longest effect
area under the effect over time curve (VAS any/good drug effect) (healthy subjects [3]; [9]): similar
peak effect (VAS any/good drug effect) (healthy subjects [3]; [9]): lower than those of psilocybin and LSD
time to peak of subjective effects (VAS any/good drug effect) (healthy subjects [3]; [9]): took longer to peak compared to those of psilocybin and LSD
duration of subjective effects (VAS any drug effect) (healthy subjects [3]; six healthy volunteers): lasted similarly long

COc1cc(CCNC(C)=O)cc(OC)c1OC [NAM, N-acetyl-mescaline]
share excreted in urine as this species after mescaline (healthy male subjects; [8]): 0.1%
psychoactive or cardiostimulant properties of metabolites administered to humans (healthy male subjects): not to have psychoactive or cardiostimulant properties

CNC(C)Cc1ccc2c(c1)OCO2 (stereo not drawn) [MDMA, 3,4-methylendioxymethamphetamine]
AED score [6]: 1.3
OB score [6]: 9.3
VR score [6]: 4.1

CCN(CC)C(=O)[C@@H]1C=C2c3cccc4[nH]cc(c34)C[C@H]2N(C)C1 [LSD, lysergic acid diethylamide, reference compound]
duration of effects (healthy subjects [7]): 8 h
time of peak responses (healthy subjects [7]): 3 h
mean total LC score (healthy subjects [1]): 5.4
binding potency at the 5-HT2A receptor (rank) (5-HT2A receptor): binds most potently
overall peak effects (total 3D-OAV scores) (healthy subjects [5]; LSD 100 μg, psilocybin 20 mg): equally strong overall peak effects
AED score [6]: 26
OB score [6]: 43
VR score [6]: 50
area under the effect-time curve, visual and auditory perception (VAS) (healthy subjects [3]; doses used): greater
bad drug effect (VAS) peaks (healthy subjects [3]; doses used): peaks lower for LSD and mescaline compared with psilocybin
ego-dissolution (VAS) (healthy subjects [3]; doses used): mostly increased
stimulated (VAS) (healthy subjects [3]; doses used): greater stimulation than mescaline
synesthesia, "sounds influenced what I saw" (VAS) (healthy subjects [3]; doses used): highest ratings
visual and auditory perception change (VAS), ratings/peak (healthy subjects [3]; doses used): highest ratings
area under the effect over time curve (VAS any/good drug effect) (healthy subjects [3]; [9]): greater
duration of subjective effects (VAS any drug effect) (healthy subjects [3]; six healthy volunteers): lasted similarly long

Source: patent US20220265582A1, “EFFECTS OF MESCALINE AND OF MESCALINE ANALOGS (SCALINES) TO ASSIST PSYCHOTHERAPY” (Universitätsspital Basel, priority 2021, published 2022)
